Assay results published in ChEMBL document CHEMBL1133385, “The de novo design and synthesis of cyclic urea inhibitors of factor Xa: optimization of the S4 ligand” (Bioorg Med Chem Lett, 2000).
pKi: −log10 of the molar value. One block for each molecule: values may come before it.

Tests used:
[1] = target: Prothrombin (Homo sapiens, UniProt P00734); test: Inhibitory activity against thrombin
[2] = target: Coagulation factor X (Homo sapiens, UniProt P00742); test: Inhibition of coagulation factor Xa
[3] = target: Serine protease 1 (Homo sapiens, UniProt P07477); test: Inhibitory activity against trypsin
[4] = Plasma clearance was determined in rabbit at a dose of 5 mg/kg/h administered i.v.; assay type: ADME, organism-based, Oryctolagus cuniculus; parameters: route intravenous; conditions: iv
[5] = Half life period was determined; conditions: rabbit
[6] = Maximum plasma concentration was determined in rabbit at a dose of 5 mg/kg/h administered i.v.; assay type: ADME, organism-based, Oryctolagus cuniculus; parameters: dose 5 mg/kg/h, route intravenous; conditions: iv
[7] = The compound was evaluated for volume of distribution in rabbit at a dose of 5 mg/kg/h administered i.v.; assay type: ADME, organism-based, Oryctolagus cuniculus; parameters: route intravenous; conditions: in vivo, iv

Coagulation factor X, sequence (P00742 41-179 limits assumed): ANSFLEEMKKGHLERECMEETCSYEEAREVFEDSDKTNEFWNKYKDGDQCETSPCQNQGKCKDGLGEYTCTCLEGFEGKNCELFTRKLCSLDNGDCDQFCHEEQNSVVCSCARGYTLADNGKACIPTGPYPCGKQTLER
Coagulation factor X, sequence (P00742 235-488 limits assumed): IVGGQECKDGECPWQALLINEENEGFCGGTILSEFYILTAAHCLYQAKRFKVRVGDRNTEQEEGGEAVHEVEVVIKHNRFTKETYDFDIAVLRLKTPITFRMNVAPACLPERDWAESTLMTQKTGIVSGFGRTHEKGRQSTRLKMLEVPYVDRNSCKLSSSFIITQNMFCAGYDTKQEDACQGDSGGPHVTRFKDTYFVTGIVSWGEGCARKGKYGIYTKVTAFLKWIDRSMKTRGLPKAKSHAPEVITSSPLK
Serine protease 1, sequence (P07477 whole entry): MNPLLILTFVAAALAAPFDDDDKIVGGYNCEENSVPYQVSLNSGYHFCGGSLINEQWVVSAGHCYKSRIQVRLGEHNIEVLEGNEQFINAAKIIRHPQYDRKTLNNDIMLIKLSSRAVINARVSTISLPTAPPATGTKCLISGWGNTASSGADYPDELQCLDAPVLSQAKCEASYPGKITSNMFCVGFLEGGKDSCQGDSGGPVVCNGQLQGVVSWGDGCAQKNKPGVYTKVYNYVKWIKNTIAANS

- pKi [2]: 7.10
- pKi [1]: 5.85
- pKi [3]: 6.77
SMILES: N=C(N)c1cccc(N2CCCCN(C3CCN(Cc4cccs4)CC3)C2=O)c1

- pKi [2]: 6.70
- pKi [1]: 5.17
SMILES: N=C(N)c1cccc(N2CCCCN(C3CCN(Cc4ccncc4)CC3)C2=O)c1

- pKi [2]: 6.17
- pKi [1]: 5.28
SMILES: N=C(N)c1cccc(N2CCCCN(C3CCN(Cc4cccnc4)CC3)C2=O)c1

- pKi [2]: 7.92
- pKi [1]: 5.59
- pKi [3]: 6.92
SMILES: N=C(N)c1cccc(N2CCCCN(C3CCN(Cc4ccccn4)CC3)C2=O)c1

- pKi [2]: 6.66
- pKi [1]: 5.44
- pKi [3]: 6.00
SMILES: N=C(N)c1cccc(N2CCCCN(C3CCN(CCc4ccccc4)CC3)C2=O)c1

Continued, molecule first:

SMILES: N=C(N)c1cccc(N2CCCCN(C3CCN(C(=O)c4ccccc4)CC3)C2=O)c1
- pKi [1]: < 4.68

SMILES: N=C(N)c1cccc(N2CCCCN(C3CCN(S(=O)(=O)c4ccccc4)CC3)C2=O)c1
- pKi [2]: 7.62
- pKi [1]: 5.80
- pKi [3]: 7.22

SMILES: N=C(N)c1cccc(N2CCCCN(C3CCN(C(=O)Cc4ccccc4)CC3)C2=O)c1
- pKi [2]: 6.05
- pKi [1]: 4.93

SMILES: N=C(N)c1cccc(N2CCCCN(C3CCN(S(=O)(=O)Cc4ccccc4)CC3)C2=O)c1.O=C(O)C(F)(F)F
- clearance [4]: 68.3 mL/min/kg
- half-life [5]: 2.4 min
- Cmax [6]: 4.8 µM
- Vd [7]: 0.23 L/kg
- pKi [2]: 8.00
- pKi [1]: 6.30
- pKi [3]: 7.10

SMILES: Cl.N=C(N)c1cccc(N2CCCCN(C3CCN(S(=O)(=O)c4cccs4)CC3)C2=O)c1
- clearance [4]: 11.3 mL/min/kg
- half-life [5]: 66 min
- Cmax [6]: 36 µM
- Vd [7]: 1.1 L/kg
- pKi [2]: 7.92
- pKi [1]: 5.82
- pKi [3]: 7.28

SMILES: N=C(N)c1cccc(N2CCCCN(C3CCN(S(=O)(=O)c4cccc(N)c4)CC3)C2=O)c1
- pKi [2]: 6.70
- pKi [1]: 5.66

SMILES: N=C(N)c1cccc(N2CCCCN(C3CCN(S(=O)(=O)c4ccccc4N)CC3)C2=O)c1
- pKi [2]: 7.47
- pKi [1]: 5.62
- pKi [3]: 6.89

SMILES: N=C(N)c1cccc(N2CCCCN(C3CCN(S(=O)(=O)Cc4ccccn4)CC3)C2=O)c1.O=C(O)C(F)(F)F.O=C(O)C(F)(F)F
- clearance [4]: 132 mL/min/kg
- half-life [5]: 1.8 min
- Cmax [6]: 2.4 µM
- Vd [7]: 0.34 L/kg
- pKi [2]: 8.00
- pKi [1]: 6.30
- pKi [3]: 7.24

SMILES: N=C(N)c1cccc(N2CCCCN(C3CCN(S(=O)(=O)c4ccc(N)cc4)CC3)C2=O)c1
- pKi [2]: 7.15
- pKi [1]: 5.20
- pKi [3]: 6.72
